Experimental data taken from paper PMC10951066, “The self-reactive FVIII T cell repertoire in healthy individuals relies on a short set of epitopes and public clonotypes” (Frontiers in Immunology, 2024).

What was measured:
[1] = test system: CD4 T cells from healthy donors; assay: Large-scale CD4 T cell epitope mapping by IFN-γ ELISPOT (16 donors); format: cell-based, human; details: for nb positive T cell lines: across all 16 donors; for cumulative donor coverage (%): cumulative over peptides ranked by donor coverage; for Donor coverage ( %): of 16 donors; for responding donors: of 16 healthy donors, individual peptide 10 µg/ml; for response intensity ( %): percentage of 872 FVIII-specific T cell lines
Description: PBMCs were purified from the whole blood of anonymous healthy donors, who gave informed consent (Etablissement Français du Sang, Rungis, France), using Ficoll-Paque®. Monocyte-derived dendritic cells (DCs) were produced from cells isolated using Percoll gradient by 5 days of culture in AIM-V medium (Invitrogen, Villebon-sur-Yvette, France) supplemented with 1,000 U/ml recombinant human (rh) IL-4 and rhGM-CSF (both from R&D Systems, Lille, France). Mature DCs were produced by two supplementary days of culture in the presence of LPS (1 µg/ml) and R848 (10µg/ml). CD4 T cells were isolated from autologous PBMCs by positive selection using magnetic labeling with anti-CD4 mAbs conjugated to magnetic microbeads followed by magnetic cell sorting, as recommended by the manufacturer (Miltenyi Biotec, Bergisch Gladbach, Germany). Immature DCs were loaded overnight at 37 °C with either 0.2 µM of rFVIII, 0.2 µM of ovalbumin, or 0.25 µM of KLH in 96-well U-bottom plates, while mature DCs were used for FVIII peptides (10 ug/ml). CD4 T cell lines were generated in vitro in IMDM (Invitrogen) supplemented with 10% human serum, 0.24 mM glutamine, 0.55 mM asparagine, 1.5 mM arginine (all amino acids from Sigma-Aldrich), 50 U/mL penicillin/50 μg/mL of streptomycin (Invitrogen), 20 IU/mL human IL-2, and 17 IU/ml human IL-7 (premium-grade; Miltenyi Biotec) by three once-per-week rounds of stimulation of CD4 T cells (200,000 per well) with autologous DCs (20,000 per well). 10,000 lymphocytes were collected at day 19 from each T cell line (expanded T cells contained in one well) and their specificity was assessed by using IFN-g ELISPOT.
The T cell lines and APCs were plated at equal number for both stimulated and unstimulated control conditions. […] The spot number was determined by using the ELISPOT Reader System (Autoimmun Diagnostika, Ebinger, Germany). HLA restriction was assessed using monoclonal antibodies (10 μg/ml) specific to HLA-DP (B7/21), HLA-DQ (SPVL3), or HLA-DR (L243).
Based on the T cell epitope prediction software NetMHCpan4.0 ([23]), we selected 63 20-mer peptides that are predicted for their ability to bind promiscuously, with a percentile score below 10%, at least four HLA class II molecules from a selection of 15 preponderant HLA-DR alleles in our panel (as shown in ST1). […] A total of 16 healthy donors with unrelated HLA typing (ST2) were used as sources of T cells to identify FVIII-specific CD4 T cell epitopes. Specific T cell lines were generated by in vitro T cell culture using FVIII and KLH. The peptide specificity of the T cell lines raised against FVIII was assessed by two independent IFN-γ ELISPOT using peptide pools and individual peptides. […] Furthermore, four independent healthy donors were used as sources of T cells to characterize the HLA restriction and to assess the reactivity of T cell lines generated with the 18 peptides toward rFVIII. T cell lines were amplified in vitro for 28 days through stimulation with the pool of 18 peptides and then tested through IFN-γ ELISPOT.

HLA-DRB1*0401 = HLA-DRB1*0401 (Homo sapiens, UniProt P01903+P01911, A100K/A169T/F76Y/I96L/K127E/L162R/M171V/N62H/P40V/Q125Y/R42H/S133A/S149N/S66Y/V115G/V209L/W38E); assay: Peptide-MHCII competition binding assay; details: competition ELISA, pH 5.9, peptide 90.000nM – 0.9nM, HLA-DRB1 30 nM, biotinylated peptide 15nM, duplicate wells; ratios below 10 = good binding; reference peptide […]
Description: (§1) Quantitative peptide-MHCII competition binding assays were carried out to determine binding avidities of the 18 20-mer FVIII peptides to 6 HLA-DRB1. Data are presented as ratio between reference peptide IC50/FVIII-peptide IC50 tested. Briefly, non-biotinylated FVIII peptides have been diluted at a concentration of 20 mM in DMSO. 10-µl aliquots of serially diluted (90.000nM – 0.9nM in n-Octyl b-D-Glucopyranoside, 2.5 mg/ml in 1x phosphate buffer, pH 5.9) of non-biotinylated FVIII peptides, were added to duplicate wells of 96-well polypropylene plates. Serially diluted non-FVIII reference peptides known to bind to the specific HLA-DRB1 were added to separate wells as positive controls. Next, the biotinylated peptide at a concentration of 2mM was use to prepare 1000-fold pre-dilution to reach a final concentration of 15nM. The HLA-DRB1 proteins were diluted to 30 nM in n-Octyl β-D-Glucopyranoside, 2.5 mg/ml in 1x phosphate buffer, pH 5.9. […] SA-HRP (diluted 5000x in 1xPBS 0.1% Tween20) was added to each well. The plates were covered and incubated at room temperature for 60 min […] and washed. TMB (100 μl/well) was then added, and the plates were incubated at room temperature for 15-30 min. ELISA stopping solution (0.5M H2SO4) was added and then read on a FLUOstar OPTIMA fluorometer. Sigmoidal binding curves were simulated and IC50 values calculated for the FVIII peptides, based on their competition with the reference peptides for each HLA-DRB1. Data were reported as the ratio between the values of the tested peptide and of the reference peptide. Ratios below 10 correspond to good biding affinity.

HLA-DRB1*0701 = HLA-DRB1*0701 (Homo sapiens, UniProt P01903+P01911, A100R/A102G/A103Q/D57E/D86V/E43K/F76Y/K127E/L162R/M171V/P40G/Q125H/Q99D/R33Q/R42Y/R54Q/S133A/S66F/T210M/V115G/Y107V/Y59L/Y89S); assay: Peptide-MHCII competition binding assay; details: competition ELISA, pH 5.9, peptide 90.000nM – 0.9nM, HLA-DRB1 30 nM, biotinylated peptide 15nM, duplicate wells; ratios below 10 = good binding; reference peptide PVDLHAFLSQAVFS
Description: as §1

HLA-DRB1*1101 = HLA-DRB1*1101 (Homo sapiens, UniProt P01903+P01911, A100R/A169T/A87E/I96F/K41T/L162R/M171V/P40S/Q125H/Q178H/Q39Y/Q99D/R42S/S66Y/T262R/V115G/W38E); assay: Peptide-MHCII competition binding assay; details: competition ELISA, pH 5.9, peptide 90.000nM – 0.9nM, HLA-DRB1 30 nM, biotinylated peptide 15nM, duplicate wells; ratios below 10 = good binding; reference peptide […]
Description: as §1

HLA-DRB1*0101 = HLA-DRB1*0101 (Homo sapiens, UniProt P01903+P01911, A100R/D57E/F55L/F60I/F76Y/I96L/L162R/M171V/P40L/Q125E/R42F/V115G/Y59C); assay: Peptide-MHCII competition binding assay; details: competition ELISA, pH 5.9, peptide 90.000nM – 0.9nM, HLA-DRB1 30 nM, biotinylated peptide 15nM, duplicate wells; ratios below 10 = good binding; reference peptide […]
Description: as §1

Row | Sequence | nb positive T cell lines [1] | cumulative donor coverage (%) [1] [%] | Donor coverage ( %) [1] [%] | responding donors [1] | response intensity ( %) [1] | Ratio IC50 DRB1*0401 (HLA-DRB1*0401) | Ratio IC50 DRB1*0701 (HLA-DRB1*0701) | Ratio IC50 DRB1*1101 (HLA-DRB1*1101) | Ratio IC50 DRB1*0101 (HLA-DRB1*0101)
1 | ATRRYYLGAVELSWDYMQSD [P20-39, 20-mer FVIII peptide, A1 domain] | 43 | 81 | 62 | 10 | 4,93% | 1.7 | 0.5 | 0.8 | 
2 | DHLFNIAKPRPPWMGLLGPT [P75-94, 20-mer FVIII peptide, A1 domain] | 38 | 81 | 69 | 11 | 4,36% | 27 | 1 | 1.8 | 747
3 | HPQSWVHQIALRMEVLGCEA [P2328-2347, 20-mer FVIII peptide, C2 domain] | 23 |  | 56 | 9 | 2,64% | 1240 | 1 | 2 | 1.6
4 | INGYIMDTLPGLVMAQDQRI [P1940-1959, 20-mer FVIII peptide, A3 domain] | 14 | 94 | 56 | 9 | 1,61% | 0.1 | 1.1 | 0.5 | 6
5 | KARLHLQGRSNAWRPQVNNP [P2226-2245, 20-mer FVIII peptide, C2 domain] | 12 |  | 56 | 9 | 1,38% | 3 | 0.05 | 1.9 | 0.2
6 | KEPFSWIKVDLLAPMIIHGI [P2084-2103, 20-mer FVIII peptide, C1 domain] | 20 | 94 | 56 | 9 | 2,29% | 1.9 |  |  | 
7 | KKEEYKMALYNLYPGVFETV [P1986-2005, 20-mer FVIII peptide, A3 domain] | 18 |  | 50 | 8 | 2,06% | 622.5 | 0.2 |  | 182
8 | KLARLHYSGSINAWSTKEPF [P2068-2087, 20-mer FVIII peptide, C1 domain] | 20 |  | 50 | 8 | 2,29% | 0.2 | 0.35 | 4.6 | 70.5
9 | LGQFLLFCHISSHQHDGMEA [P322-341, 20-mer FVIII peptide, A1 domain] | 27 | 81 | 62 | 10 | 3,10% |  | 0.6 | 0.05 | 
10 | LLTRYLRIHPQSWVHQIALR [P2320-2339, 20-mer FVIII peptide, C2 domain] | 10 |  | 50 | 8 | 1,15% | 76 | 0.05 | 1 | 1
11 | LSHVDLVKDLNSGLIGALLV [P178-197, 20-mer FVIII peptide, A1 domain] | 19 | 81 | 56 | 9 | 2,18% | 0.05 | 0.4 | 0.1 | 1.7
12 | PPIIARYIRLHPTHYSIRST [P2161-2180] | 21 |  | 56 | 9 | 2,41% | 5.6 | 0.05 | 0.4 | 1
13 | RHYFIAAVERLWDYGMSSSP [P1715-1734, 20-mer FVIII peptide, A3 domain] | 16 |  | 50 | 8 | 1,83% | 138 | 1 |  | 20.4
14 | SLYISQFIIMYSLDGKKWQT [P2114-2133, 20-mer FVIII peptide, C1 domain] | 10 |  | 50 | 8 | 1,15% | 0.6 | 0.1 | 0.4 | 0.2
15 | VHSIFLEGHTFLVRNHRQAS [P285-304, 20-mer FVIII peptide, A1 domain] | 44 | 75 | 75 | 12 | 5,05% | 57.6 | 2 | 0.0 | 163
